Experimental data as given in patent publication US7888527B2 (University of Virginia Patent Foundation, priority 2004, dated 2011).

Assays:
[1] = Metabolic stability in biologic systems (mouse); type: in vivo; conditions: in a mouse
S1P receptors = test: Antagonist properties (potency, S1P receptor type selectivity) compared with VPC23019
human S1P1 receptor [2] = target: T1, human S1P1 receptor (Homo sapiens, UniProt P21453); test: [γ-35S]GTP binding assay, HEK293T membranes (agonism and Schild antagonism); type: biochemical; set-up: expressed in transfected cells; host or cells: HEK293T, transient transfection; membranes; key to Schild analysis flag on pKb S1P1: *: Based on Schild analysis, the antagonism observed was not competitive; conditions: for EC50: -log molar concentration giving 50% of maximal [γ-35S]GTP binding, ± S.E.M., read-out: pEC50 S1P1 (converted); for Kb: read-out: pKb S1P1 (converted); for Agonist efficacy class S1P1: relative to S1P Emax
Excerpt: (§1) The appropriate receptor plasmid DNA (encoding human S1P1, human S1P2, human S1P3, human S1P4, human S1P5, human LPA1, human LPA2 or human LPA3 receptors) is mixed with equal amounts of expression plasmids encoding human Gi2α (for S1P3, a mutated (C352F) rat Gi2α is used), cow β1, and cow γ2 proteins, and these DNAs are used to transfect monolayers of HEK293T cells (where ‘T’ indicates expression of the SV-40 virus large T antigen) using the calcium phosphate precipitate method (7). After about 60 hours, cells are harvested, membranes prepared, aliquoted, and stored at −70° C. until use (8).
(§2) The [γ-^35S]GTP binding assay is performed as described previously (8). Membranes containing 1-5 μg of protein are incubated in 0.1 ml of binding buffer (in mM: HEPES/50, NaCl/100, MgCl2/10, pH 7.5) containing 5 μg of saponin, 10 μM GDP, 0.1 nM [γ-^35S]GTP (1200 Ci/mmol), and indicated lipid(s) for 30 min at 30° C. and collected using a Brandel Cell Harvester (Gaithersburg, Md.). Samples are then analyzed for bound radionuclide.
(§3) Briefly, nonlinear analysis of the best-fit line generated by plotting the negative log of the EC50 values obtained from agonist dose-response curves, in the absence and presence of varying concentrations of antagonist, was plotted against the concentration of antagonist to give the Kb value.
(§4) Statistical Analysis. The EC50 and IC50 values for all dose response curves were determined by nonlinear regression analysis of all data using the Graphpad Prism© program. The error associated with the data collected is reported as the standard error of the mean (S.E.M).

human S1P3 receptor [3] = target: T2, human S1P3 receptor (Homo sapiens, UniProt Q99500); test: as above; type: biochemical; set-up: expressed in transfected cells; host or cells: HEK293T, transient transfection; membranes; key to Schild analysis flag on pKb S1P3: *: Based on Schild analysis, the antagonism observed was not competitive; conditions: for Agonist efficacy class S1P3: relative to S1P Emax; for Kb: read-out: pKb S1P3 (converted); for EC50: -log molar concentration giving 50% of maximal [γ-35S]GTP binding, ± S.E.M., read-out: pEC50 S1P3 (converted)
Excerpt: as §1, §2, §3, §4

human S1P4 receptor = target: T3, human S1P4 receptor (Homo sapiens, UniProt O95977); test: [γ-35S]GTP binding assay, HEK293T membranes; type: biochemical; conditions: -log molar concentration giving 50% of maximal [γ-35S]GTP binding; ± S.E.M.; read-out: pEC50 S1P4 (converted)
T3 construct: expressed in transfected cells; host or cells: HEK293T, transient transfection; membranes
T3 sequence (O95977 1-384): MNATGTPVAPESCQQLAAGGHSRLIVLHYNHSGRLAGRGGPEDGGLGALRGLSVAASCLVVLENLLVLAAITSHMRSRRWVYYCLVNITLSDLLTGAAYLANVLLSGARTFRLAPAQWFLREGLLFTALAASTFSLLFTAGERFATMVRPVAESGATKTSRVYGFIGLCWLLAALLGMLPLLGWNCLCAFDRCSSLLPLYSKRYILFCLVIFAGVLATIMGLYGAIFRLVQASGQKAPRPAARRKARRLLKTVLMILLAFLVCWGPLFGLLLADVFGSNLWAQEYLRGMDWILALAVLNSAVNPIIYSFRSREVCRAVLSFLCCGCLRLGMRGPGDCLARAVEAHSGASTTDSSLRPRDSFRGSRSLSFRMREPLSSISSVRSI
Excerpt: as §1, §2, §4

human S1P5 receptor = target: T4, human S1P5 receptor (Homo sapiens, UniProt Q9H228); test: [γ-35S]GTP binding assay, HEK293T membranes; type: biochemical; conditions: for Agonist efficacy class S1P5: relative to S1P Emax; for EC50: -log molar concentration giving 50% of maximal [γ-35S]GTP binding, ± S.E.M., read-out: pEC50 S1P5 (converted)
T4 construct: expressed in transfected cells; host or cells: HEK293T, transient transfection; membranes
Excerpt: as §1, §2, §4

S1P2 receptor = target: T5, S1P2 receptor (Homo sapiens, UniProt O95136); test: [γ-35S]GTP binding assay, HEK293T membranes; type: biochemical; conditions: for EC50: -log molar concentration giving 50% of maximal [γ-35S]GTP binding, ± S.E.M., read-out: pEC50 S1P2 (converted)
T5 construct: expressed in transfected cells; host or cells: HEK293T, transient transfection; membranes
Excerpt: as §1, §2, §4

human S1P1 receptor [4] = target: T1, human S1P1 receptor; test: Cell migration assay, T24 cells transfected stably with human S1P1 receptor; type: cell-based; set-up: expressed in transfected cells; conditions: 50 nM antagonist
Description: (§5) […] monolayers are co-transfected with the human S1P1, S1P2, S1P3 receptor encoding DNAs and the pIRESpuro2 plasmid DNA (Clontech, San Jose, Calif.,) using either Lipofectamine 2000 (Invitrogen, Carlsbad, Calif.) or FuGENE 6 (Roche Applied Science, Indianapolis, Ind.). Clonal populations expressing the puromycin acetyltransferase gene are selected by addition of puromycin (Sigma-Aldrich, St. Louis, Mo.) to the culture media. T24 cells are grown in monolayers at 37° C. in a 5% CO2/95% air atmosphere in growth media consisting of: 95% DMEM/F-12 medium and 10% charcoal/dextran stripped FBS.
Cell migration assays are performed using modified Boyden chambers (tissue culture-treated, 24-mm diameter, 10-μm thickness, 8-μm pores, Transwell®; Costar Corp., Cambridge, Mass.) containing polycarbonate membranes that are coated on the underside with 0.1% gelatin. The underside of the polycarbonate membranes is rinsed once with migration media (DMEM/F12 without Phenol Red and 0.1% fatty acid free BSA) and then immersed in the lower chamber containing two milliliters of migration media. T24 cells transfected stably with human S1P1 receptor DNA were grown in DMEM/F12 media containing charcoal/dextran stripped FBS and 10 μg/ml puromycin to 100% confluence in 150×2.5 mm tissue culture plates and serum starved at least 12 hours. Serum-starved cells were removed from culture dishes with 10× Trypsin-EDTA (Hanks' balanced salt solution containing 5 mM EDTA and 25 mM HEPES, pH 7.2, and 0.1% trypsin; Invitrogen, San Diego, Calif.), suspended in migration buffer and collected by centrifugation at 130×g for 5 minutes. The supernatant fluid was removed by aspiration and cell pellet resuspended in migration media (10^6 cells/ml). […] The non-migrating cells in the upper chamber were removed by aspiration and the migratory cells attached to the bottom surface of the membrane were isolated by incubation in 10× Trypsin-EDTA for 1 min at room temperature and gently tapping the plate to dislodge cells from the membrane. The mass of migratory cells per membrane was evaluated by combining 100 μl of cell suspension with an equal volume of CyQuant dye solution (3.0 ml of 2× lysis buffer and 15 μl CyQuant dye), and the resulting fluorescence quantified using the FlexStation™ fluorimeter (Molecular Devices, Menlo Park, Calif.). Each determination represents the average of two individual migration chambers. […] The monolayer was washed three times with phosphate buffered saline and processed immediately for the cell migration assay, as described above.

human S1P3 receptor [5] = target: T2, human S1P3 receptor; test: [32P]S1P binding assay, HEK293T membranes; set-up: expressed in transfected cells; host or cells: HEK293T, transient transfection; membranes; conditions: for Ki: read-out: pKi S1P3 (converted)
Description: (§6) [^32P]-S1P was prepared by incubating sphingosine and [γ-^32P]ATP with cell lysate from HEK293T cells transiently transfected with human sphingosine kinase type 2 DNA. The 200 μl reaction contained 0.025 mM sphingosine, 1 mCi [γ-^32P]ATP (7000 Ci/mmol) and kinase buffer (in mM: Mg(C2H3O2)2 (in 50 mM Tris, pH 7.5)/10, NaF/10, and semicarbizide/2). The reaction was initiated by the addition of 20 μg of cell lysate and incubated at 37° C. for at least 30 minutes. […] The organic layer was isolated and the extraction procedure repeated two additional times with the remaining aqueous fraction. The combined organic fractions were dried under a stream of nitrogen gas and resuspended in aqueous 0.1% fatty acid free BSA.
(§7) Bound ligand was separated from free ligand by rapid filtration and analyzed in a liquid scintillation counter.
as §4

human S1P1 receptor [6] = target: T1, human S1P1 receptor; test: [32P]S1P binding assay, HEK293T membranes; set-up: expressed in transfected cells; host or cells: HEK293T, transient transfection; membranes; conditions: read-out: pKi S1P1 (converted)
Description: as §6, §7, §4

human S1P3 receptor [7] = target: T2, human S1P3 receptor; test: Intracellular calcium mobilization, T24 cells transfected stably with human S1P3 receptor; type: cell-based; set-up: expressed in transfected cells; conditions: T24-S1P3 cells versus wild-type T24 cells
Description: as §5
A FlexStation™ fluorimeter (Molecular Devices, Menlo Park, Calif.) was used to measure intracellular calcium in native T24 cells and T24 cells transfected stably with either human S1P2 or human S1P3 receptor DNA. Cells were seeded (˜50,000 cells/well) in 96-well, clear bottom black microplates (Corning Costar Corp.) and left overnight at 37° C. The cells were dye-loaded with 4 μM Fluo-4AM ester in a loading buffer (Hank's Balanced Salt Solution, […], containing 20 mM HEPES, 0.1% fatty acid free BSA, and 2.5 mM probenecid) for 30 minutes at 37° C. After washing cell monolayers three times with phosphate buffered saline, loading buffer was added and the cells exposed to sets of compounds for 3 minutes at 25° C. in the FlexStation™. In all cases, each concentration of every compound was tested in at least triplicate. […] The cells were washed with phosphate buffered saline and exposed to compounds immediately, as described above.
as §3

T4 sequence (Q9H228 whole entry): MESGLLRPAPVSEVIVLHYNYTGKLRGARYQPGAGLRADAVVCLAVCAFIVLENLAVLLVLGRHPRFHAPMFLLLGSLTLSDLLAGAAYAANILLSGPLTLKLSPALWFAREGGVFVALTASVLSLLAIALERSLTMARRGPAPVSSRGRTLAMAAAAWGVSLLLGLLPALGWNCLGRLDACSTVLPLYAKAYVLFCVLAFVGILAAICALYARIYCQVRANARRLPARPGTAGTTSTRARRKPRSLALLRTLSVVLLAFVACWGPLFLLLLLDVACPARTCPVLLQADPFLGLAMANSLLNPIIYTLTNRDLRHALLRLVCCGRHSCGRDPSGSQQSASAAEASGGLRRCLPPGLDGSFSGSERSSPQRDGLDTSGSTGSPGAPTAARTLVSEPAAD
T2 sequence (Q99500 whole entry): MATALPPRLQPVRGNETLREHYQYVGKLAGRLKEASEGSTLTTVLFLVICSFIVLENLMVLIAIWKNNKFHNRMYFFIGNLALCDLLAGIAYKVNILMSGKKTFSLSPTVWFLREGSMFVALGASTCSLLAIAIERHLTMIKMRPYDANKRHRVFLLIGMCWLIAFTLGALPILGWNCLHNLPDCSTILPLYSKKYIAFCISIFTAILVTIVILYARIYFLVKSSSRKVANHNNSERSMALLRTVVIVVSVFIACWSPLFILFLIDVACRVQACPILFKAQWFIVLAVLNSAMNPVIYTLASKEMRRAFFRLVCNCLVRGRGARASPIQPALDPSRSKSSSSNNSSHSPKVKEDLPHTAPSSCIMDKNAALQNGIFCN
T1 sequence (P21453 whole entry): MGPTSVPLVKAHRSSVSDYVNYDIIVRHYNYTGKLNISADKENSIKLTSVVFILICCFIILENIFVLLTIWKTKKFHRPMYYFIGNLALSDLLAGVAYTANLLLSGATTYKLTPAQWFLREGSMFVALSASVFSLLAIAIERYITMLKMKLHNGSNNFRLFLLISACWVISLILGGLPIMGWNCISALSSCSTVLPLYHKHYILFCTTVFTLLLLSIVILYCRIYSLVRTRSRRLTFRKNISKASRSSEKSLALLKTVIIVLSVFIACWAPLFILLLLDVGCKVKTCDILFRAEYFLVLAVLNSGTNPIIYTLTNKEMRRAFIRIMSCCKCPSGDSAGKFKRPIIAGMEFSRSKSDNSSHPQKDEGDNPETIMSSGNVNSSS
T5 sequence (O95136 whole entry): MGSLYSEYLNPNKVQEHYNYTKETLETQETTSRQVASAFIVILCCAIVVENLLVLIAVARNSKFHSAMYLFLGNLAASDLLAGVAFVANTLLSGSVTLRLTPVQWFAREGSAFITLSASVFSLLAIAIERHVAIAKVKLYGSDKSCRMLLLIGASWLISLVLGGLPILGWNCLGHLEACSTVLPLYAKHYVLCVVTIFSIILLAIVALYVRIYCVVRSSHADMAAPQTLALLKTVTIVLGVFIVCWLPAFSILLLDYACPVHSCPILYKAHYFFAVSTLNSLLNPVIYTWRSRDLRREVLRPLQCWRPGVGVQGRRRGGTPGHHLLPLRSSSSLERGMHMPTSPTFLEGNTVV

Structure (SMILES)	Agonist activity at the S1P1 receptor (human S1P1 receptor [2])	EC50 (human S1P1 receptor [2])	Agonist efficacy class S1P3 (human S1P3 receptor [3])	EC50 (human S1P4 receptor)	Agonist efficacy class S1P5 (human S1P5 receptor)	EC50 (S1P2 receptor)	Kb (human S1P1 receptor [2])	Agonist efficacy class S1P1 (human S1P1 receptor [2])	Kb (human S1P3 receptor [3])	Blockade of VPC22277 (10 nM)-induced migration (human S1P1 receptor [4])	EC50 (human S1P5 receptor)	Ki (human S1P3 receptor [5])	Ki (human S1P1 receptor [6])	other results
CCCCCCCCc1cccc(NC(=O)[C@H](N)CCP(=O)(O)O)c1 [VPC44116]	–	–	–	–	–	–	–	–	–	–	–	–	–	Metabolic stability in biologic systems [1]: at least 18 hours; Antagonist properties (potency, S1P receptor type selectivity) versus VPC23019 (S1P receptors): indistinguishable from VPC23019
CCCCCCCCCc1cccc(NC(=O)[C@H](N)COP(=O)(O)O)c1 [VPC23079]	agonists (or partial agonists)	676 nM	na (no agonist activity (<10% of S1P Emax))	1170 nM	na (no agonist activity (<10% of S1P Emax))	> 10 µM	–	–	–	–	–	–	–	–
CCCCCCCCc1ccccc1NC(=O)[C@H](N)COP(=O)(O)O [VPC23089]	–	–	na (no agonist activity (<10% of S1P Emax))	851 nM	–	> 10 µM	490 nM	na (no agonist activity (<10% of S1P Emax))	437 nM	Blockade	> 10000 nM	1580 nM	891 nM	Schild analysis flag on pKb S1P3 (human S1P3 receptor [3]): *
CCCCCCc1cccc(NC(=O)[C@H](N)COP(=O)(O)O)c1 [VPC23031]	–	–	na (no agonist activity (<10% of S1P Emax))	1100 nM	(wpa) (weak partial agonist activity (10-50% of S1P Emax))	> 10 µM	135 nM	na (no agonist activity (<10% of S1P Emax))	10500 nM	Blockade	135 nM	–	61.7 nM	Schild analysis flag on pKb S1P3 (human S1P3 receptor [3]): *
CCCCCCCCc1cccc(NC(=O)[C@@H](N)COP(=O)(O)O)c1 [VPC25027]	agonists (or partial agonists)	2.24 nM	na (no agonist activity (<10% of S1P Emax))	–	–	–	–	(pa) (partial agonist activity (50-85% of S1P Emax))	–	–	–	–	–	Agonist efficacy class S1P2 (S1P2 receptor; relative to S1P Emax): na (no agonist activity (<10% of S1P Emax))
CCCCCCCCCCCCC/C=C/[C@@H](O)[C@@H](N)COP(=O)(O)O [Compound S1P, Sphingosine 1-phosphate, reference compound]	–	4.07 nM	–	155 nM	–	–	–	–	–	–	–	7.59 nM	1.1 nM	EC50 (human S1P3 receptor [3]): 2.24 nM; Calcium mobilization by compound alone (human S1P3 receptor [7]): dose-dependent calcium mobilization was observed
CCCCCCCc1cccc(NC(=O)[C@H](N)COP(=O)(O)O)c1 [VPC25239]	–	–	na (no agonist activity (<10% of S1P Emax))	166 nM	(pa) (partial agonist activity (50-85% of S1P Emax))	> 10 µM	562 nM	na (no agonist activity (<10% of S1P Emax))	1410 nM	Blockade	11.5 nM	97.7 nM	13.5 nM	Schild analysis flag on pKb S1P1 (human S1P1 receptor [2]): *; Potency at the S1P3 receptor relative to lead compound VPC23019 (human S1P3 receptor [5]): one log order more potent
CCCCCCCCCCc1cccc(NC(=O)[C@H](N)COP(=O)(O)O)c1 [VPC23069]	agonists (or partial agonists)	81.3 nM	(wpa) (weak partial agonist activity (10-50% of S1P Emax))	851 nM	–	> 10 µM	–	–	–	–	> 10000 nM	–	–	EC50 (human S1P3 receptor [3]): 1910 nM
